The source of these data is PubChem BioAssay (NCI).

Structures are written as SMILES.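 Method: 48-hour compound exposure of cells in 96-well plates, five concentrations, linear interpolation of endpoints. The concentration for full growth arrest is given as TGI.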

What all share (test): DTP human tumour cell line panel, 48 h
Experiment [1] relates to PC-3 prostate.
Experiment [2] has as its system MALME-3M melanoma.
Experiment [3] deals with SNB-75 CNS.
Experiment [4] concerns UACC-257 melanoma.
The subject of experiment [5] is SF-268 CNS.
The subject of experiment [6] is SNB-19 CNS.
In experiment [7] the test system is CAKI-1 renal.
Experiment [8] deals with OVCAR-5 ovarian.
Experiment [9] concerns LOX IMVI melanoma.
Experiment [10] concerns OVCAR-8 ovarian.

Take `CC(C)NC(=O)OCc1c(COC(=O)NC(C)C)c(-c2ccc[n+](COC(=O)Cc3ccccc3)c2)n2c1CCC2`: the TGI is greater than 100 µM in [1]; 97.2 µM in experiment [2]; greater than 100 µM in experiment [3]; greater than 100 µM in [4]; 68 µM in [5]; greater than 100 µM in experiment [6]. In addition, the TGI in experiment [7] was 34 µM; in [8], greater than 100 µM; in experiment [9] it was greater than 100 µM; in [10], greater than 100 µM.
Take `CN(C)CN1CSC(=S)N(CN(C)C)C1`: the TGI in experiment [1] was 42.7 µM; in experiment [2], greater than 100 µM; in experiment [3] it was greater than 100 µM; in experiment [4], greater than 100 µM; in experiment [5], greater than 100 µM; in experiment [6], greater than 100 µM. Moreover, the TGI in experiment [7], in experiment [8], in experiment [9] and in [10] was greater than 100 µM in each case.
`COC(=O)c1c(O)ccc2c1c1cc3ccccc3cc1n2Cc1cc(OC)cc(OC)c1`: the TGI was greater than 32.6 µM in experiment [1]; 64.3 µM in [2]; 8.94 µM in experiment [3]; greater than 100 µM in experiment [4]; greater than 26.9 µM in experiment [5]; greater than 100 µM in experiment [6]. Further, the total growth inhibition concentration (TGI) in experiment [7] is greater than 28.4 µM; in experiment [8], greater than 100 µM; in [9], greater than 100 µM; in experiment [10], greater than 100 µM.
On to `O=c1[nH]c2ccccc2c(O)c1Cc1ccccc1`, for which the TGI in experiment [1], in experiment [2], in experiment [3], in experiment [4], in experiment [5] and in [6] was greater than 100 µM each time. Moreover, the TGI in experiment [7], in experiment [8], in [9] and in [10] was greater than 100 µM in each case.
On to `CCC(=O)Nc1cccc(N=Cc2ccc(OC(=O)/C=C\c3ccccc3)cc2)c1`, for which the TGI in experiment [1], in [2], in experiment [3], in experiment [4], in experiment [5] and in experiment [6] was greater than 75 µM each time. The TGI in experiment [7], in [8], in [9] and in experiment [10] was greater than 75 µM throughout.
